From doi:10.1101/2020.07.10.197525v1 (biorxiv, 2020)

Legend:
GABAA α3β3γ2 = GABAA α3β3γ2 (Rattus norvegicus, UniProt P18508+P20236+P63079); assay: voltage clamp of Xenopus oocytes, potentiation of GABA-induced currents; type: cell-based
GABAA α3β2γ2 = GABAA α3β2γ2 (Rattus norvegicus, UniProt P18508+P20236+P63138); assay: as above; type: cell-based
Sequence of GABAA α3β2γ2 (P20236 29-493): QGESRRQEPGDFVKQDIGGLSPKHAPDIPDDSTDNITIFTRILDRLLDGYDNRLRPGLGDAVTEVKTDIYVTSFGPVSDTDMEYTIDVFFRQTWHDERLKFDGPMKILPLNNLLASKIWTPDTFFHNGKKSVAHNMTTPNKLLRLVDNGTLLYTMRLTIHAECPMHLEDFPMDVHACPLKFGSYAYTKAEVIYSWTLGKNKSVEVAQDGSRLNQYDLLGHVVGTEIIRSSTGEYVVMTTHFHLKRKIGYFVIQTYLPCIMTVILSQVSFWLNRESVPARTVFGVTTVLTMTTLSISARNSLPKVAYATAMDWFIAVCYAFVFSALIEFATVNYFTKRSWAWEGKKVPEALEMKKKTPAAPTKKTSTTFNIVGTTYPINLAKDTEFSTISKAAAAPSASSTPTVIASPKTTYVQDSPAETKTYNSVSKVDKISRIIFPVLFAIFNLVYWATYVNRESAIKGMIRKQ
Sequence of GABAA α3β2γ2 (P63138 26-474): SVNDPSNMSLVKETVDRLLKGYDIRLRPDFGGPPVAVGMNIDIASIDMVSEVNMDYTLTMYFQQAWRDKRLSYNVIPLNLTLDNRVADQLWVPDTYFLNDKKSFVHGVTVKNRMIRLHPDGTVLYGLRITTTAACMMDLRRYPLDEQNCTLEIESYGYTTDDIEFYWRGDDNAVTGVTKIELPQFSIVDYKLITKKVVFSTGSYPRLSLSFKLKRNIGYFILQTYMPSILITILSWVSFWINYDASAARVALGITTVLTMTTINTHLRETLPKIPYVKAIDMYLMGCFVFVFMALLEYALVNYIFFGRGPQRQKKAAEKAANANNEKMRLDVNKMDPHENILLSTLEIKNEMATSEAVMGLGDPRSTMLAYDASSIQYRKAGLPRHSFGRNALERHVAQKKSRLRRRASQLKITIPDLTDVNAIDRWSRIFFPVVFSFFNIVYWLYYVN
Sequence of GABAA α3β2γ2 (P18508 39-466): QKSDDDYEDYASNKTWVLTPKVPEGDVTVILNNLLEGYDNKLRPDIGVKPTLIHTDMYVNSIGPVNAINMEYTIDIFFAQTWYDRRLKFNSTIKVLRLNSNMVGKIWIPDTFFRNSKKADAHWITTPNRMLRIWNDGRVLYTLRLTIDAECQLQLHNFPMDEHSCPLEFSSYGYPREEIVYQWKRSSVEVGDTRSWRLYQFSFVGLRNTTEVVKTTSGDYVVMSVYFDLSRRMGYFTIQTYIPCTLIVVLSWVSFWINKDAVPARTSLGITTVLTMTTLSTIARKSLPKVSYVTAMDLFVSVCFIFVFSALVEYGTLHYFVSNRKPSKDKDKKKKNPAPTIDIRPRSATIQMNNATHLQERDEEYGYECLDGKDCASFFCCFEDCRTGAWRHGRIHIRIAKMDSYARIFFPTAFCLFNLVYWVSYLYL

Sequence of GABAA α3β3γ2 (P20236 29-493): as the sequence (P20236 29-493) above
Sequence of GABAA α3β3γ2 (P63079 26-473): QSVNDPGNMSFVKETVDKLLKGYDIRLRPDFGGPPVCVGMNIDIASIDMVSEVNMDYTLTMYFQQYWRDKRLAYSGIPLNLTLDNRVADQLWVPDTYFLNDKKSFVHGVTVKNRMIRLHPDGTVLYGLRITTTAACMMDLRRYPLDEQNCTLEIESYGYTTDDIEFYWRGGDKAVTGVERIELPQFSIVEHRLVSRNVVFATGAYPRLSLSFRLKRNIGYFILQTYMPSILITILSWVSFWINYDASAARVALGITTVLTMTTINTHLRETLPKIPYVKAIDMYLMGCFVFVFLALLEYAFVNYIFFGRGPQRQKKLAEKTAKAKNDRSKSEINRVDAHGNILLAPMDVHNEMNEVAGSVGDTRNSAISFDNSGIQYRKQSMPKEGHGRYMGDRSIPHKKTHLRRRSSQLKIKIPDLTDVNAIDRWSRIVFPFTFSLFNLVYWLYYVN
Sequence of GABAA α3β3γ2 (P18508 39-466): as the sequence (P18508 39-466) above

EC50 (GABAA α3β3γ2): 130 nM | EC50 (GABAA α3β2γ2): 380 nM
SMILES: CCOC(=O)c1cc(NC(=O)N(c2ccccc2)c2ccccc2)c2c(Cl)cc(Cl)cc2n1 [DCUK-OEt, 5,7-dichloro-4-([diphenylcarbamoyl]amino) quinoline-2-ethyl carboxylate]
